Test results taken from patent publication US7763615B2, “Ecteinascidin analogs for use as antitumour agents” (priority 2001, dated 2010).

Experiments:
[1] = system: IGROV; assay: cells; format: cell-based
Procedure, shortened: (§1)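 Human tumour cells seeded at 5×10^3 per well in RPMI 1640 10% FBS, attached 18 h, then exposed 48 h to samples from 10 to 10^−8 μg/ml in DMSO/EtOH/PBS. Growth measured by SRB staining after TCA fixation, OD 490 nm, triplicate wells; GI, TGI and LC derived.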

[2] = system: A549; assay: cells; format: cell-based; details: A549, 48 hours exposure, SRB
Procedure, shortened: as §1

[3] = system: PANC-1; assay: cells; format: cell-based; details: PANC-1, 48 hours exposure, SRB
Procedure, shortened: as §1

[4] = system: LNCAP; assay: cells; format: cell-based; details: LNCAP, 48 hours exposure, SRB
Procedure, shortened: as §1

[5] = system: LOVO-DOX; assay: cells; format: cell-based; details: LOVO-DOX, 48 hours exposure, SRB
Procedure, shortened: as §1

[6] = system: DU145; assay: cells; format: cell-based; details: DU145, 48 hours exposure, SRB
Procedure, shortened: as §1

[7] = system: MEL-28; assay: cells; format: cell-based; details: MEL-28, 48 hours exposure, SRB
Procedure, shortened: as §1

[8] = system: LOVO; assay: cells; format: cell-based; details: LOVO, 48 hours exposure, SRB
Procedure, shortened: as §1

[9] = system: IGROV-ET; assay: cells; format: cell-based; details: IGROV-ET, 48 hours exposure, SRB
Procedure, shortened: as §1

[10] = system: SK-BR3; assay: cells; format: cell-based; details: SK-BR3, 48 hours exposure, SRB
Procedure, shortened: as §1

[11] = system: K562; assay: cells; format: cell-based; details: K562, 48 hours exposure, SRB
Procedure, shortened: as §1

[12] = system: HT29; assay: cells; format: cell-based; details: HT29, 48 hours exposure, SRB
Procedure, shortened: as §1

[13] = system: FDC-P1, normal mouse myelogeous stem cells; details: 24 h
Procedure: (§8) In order to assess the cytotoxicity of the drugs to normal cells, we used 96 well plates plated at a density of 5000 cells per well (except for the FDC-P1 which were plated at 12,000 cells per well) with normal cell lines (ATCC, Table 1) maintained as per the directions of the ATCC: AML-12, normal mouse liver cells; NRK-52E, normal rat kidney cells; L8, normal rat skeletal muscle cells; FDC-P1, normal mouse myelogeous stem cells; and H9c2 (2-1), normal rat cardiac muscle cells. The cells in each plate were permitted to settle overnight before adding the test drug.
(§9) To each well (100 μl medium) 10 μl of drug in media was added at varying concentrations (1×10-10-0.01 mg/ml final concentration) and further incubated overnight at 37° C. with 5% CO2. After 24 h the following assays were performed. All experiments were repeated at least 3 times and were assayed in duplicate.
(§10) MTS assay (CellTiter 96 aqueous) was performed according to the manufacturer's (Promega) directions (for all cell types). Cell viability (mitochondrial activity) is determined via enzymatic conversion of the formazan substrate.

[14] = system: SK-OV3; assay: Inhibition of cells growth by colorimetric assay (SRB), SK-OV3; format: cell-based; details: SK-OV3, 48 hours exposure, SRB
Text: (§2) The finality of these assays is to interrupt the growth of a “in vitro” tumor cell culture by means of a continued exhibition of the cells to the sample to be testing.
(§3) A colorimetric type of assay, using sulphorhodamine B (SRB) reaction has been adapted for a quantitative measurement of cell growth and viability [following the technique described by Philip Skehan, et al. (1990), New colorimetric cytotoxicity assay for anticancer drug screening, J. Natl. Cancer Inst., 82:1107-1112]
(§4) This form of the assay employs 96 well cell culture microplates of 9 mm diameter (Faircloth, 1988; Mosmann, 1983). Most of the cell lines are obtained from American Type Culture Collection (ATCC) derived from different human cancer types.
(§5) Cells are maintained in RPMI 1640 10% FBS, supplemented with 0.1 g/l penicillin and 0.1 g/l streptomycin sulphate and then incubated at 37° C., 5% CO2 and 98% humidity. For the experiments, cells were harvested from subconfluent cultures using trypsin and resuspended in fresh medium before plating.
(§6) Cells are seeded in 96 well microtiter plates, at 5×10^3 cells per well in aliquots of 195 μl medium, and they are allowed to attach to the plate surface by growing in drug free medium for 18 hours. Afterward, samples are added in aliquots of 5 μl in a ranging from 10 to 10^−8 μg/ml, dissolved in DMSO/EtOH/PBS (0.5:0.5:99). After 48 hours exposure, the antitumor effect are measured by the SRB methodology: cells are fixed by adding 50 μl of cold 50% (wt/vol) trichloroacetic acid (TCA) and incubating for 60 minutes at 4° C. Plates are washed with deionized water and dried. One hundred μl of SRB solution (0.4% wt/vol in 1% acetic acid) is added to each microtiter well and incubated for 10 minutes at room temperature. Unbound SRB is removed by washing with 1% acetic acid. Plates are air dried and bound stain is solubilized with Tris buffer. Optical densities are read on a automated spectrophotometric plate reader at a single wavelength of 490 nm.
(§7) The values for mean+/− SD of data from triplicate wells are calculated. Some parameters for cellular responses can be calculated: GI=growth inhibition, TGI=total growth inhibition (cytostatic effect) and LC=cell killing (cytotoxic effect).

[15] = system: NRK-52E, normal rat kidney cells; details: 24 h
[16] = system: H9c2 (2-1), normal rat cardiac muscle cells; details: 24 h
[17] = system: AML-12, normal mouse liver cells; details: 24 h
Procedure: as §8, §9, §10

[18] = system: L8, normal rat skeletal muscle cells; details: 24 h
[19] = system: H-MEC-1; assay: Inhibition of cells growth by colorimetric assay (SRB), H-MEC-1; format: cell-based; details: H-MEC-1, 48 hours exposure, SRB
Text: as §2, §3, §4, §5, §6, §7

What does the source list for `COc1c(C)cc2c(c1O)[C@@H]1C3[C@@H]4SC[C@]5(NC(C)Cc6c5[nH]c5ccc(O)cc65)C(=O)COC[C@@H](c5c6c(c(C)c(OC(C)=O)c54)OCO6)N3[C@@H](O)[C@H](C2)N1C` (some centres unmarked) [Compound 38]?
GI50 ([1]; 48 hours exposure, SRB): 0.757 nM; TGI ([1]; 48 hours exposure, SRB): 2.89E−09 Molar; CC50 ([1]; read-out: LC50, 48 hours exposure, SRB): 8.4 nM; TGI [2]: 5.24E−09 Molar; GI50 ([2]; read-out: GI50): 2.38 nM; CC50 ([2]; read-out: LC50): 11.5 nM; GI50 [3]: 3.22 nM; TGI [3]: 8.37E−09 Molar; CC50 ([3]; read-out: LC50): 428 nM; GI50 [4]: 0.2 nM; TGI [4]: 7.21E−10 Molar; CC50 ([4]; read-out: LC50): 3.07 nM; GI50 [5]: 55.3 nM; TGI [5]: 8.42E−07 Molar; CC50 ([5]; read-out: LC50): 12700 nM; GI50 [6]: 2.04 nM; TGI [6]: 6.80E−09 Molar; CC50 ([6]; read-out: LC50): 12700 nM; GI50 [7]: 2.73 nM; TGI [7]: 5.33E−09 Molar; CC50 ([7]; read-out: LC50): 10.4 nM; GI50 [8]: 3.55 nM; TGI [8]: 1.03E−08 Molar; CC50 ([8]; read-out: LC50): 12700 nM; GI50 [9]: 15.7 nM; TGI [9]: 6.59E−08 Molar; CC50 ([9]; read-out: LC50): 6510 nM; GI50 [10]: 1.07 nM; TGI [10]: 3.38E−09 Molar; CC50 ([10]; read-out: LC50): 9.54 nM; GI50 [11]: 0.422 nM; TGI [11]: 8.18E−10 Molar; CC50 ([11]; read-out: LC50): 3.15 nM; GI50 [12]: 4.2 nM; TGI [12]: 1.69E−08 Molar; CC50 ([12]; read-out: LC50): 12700 nM; Myelo [13]: 9.66E−11; GI50 [14]: 2.55 nM; TGI [14]: 7.13E−09 Molar; CC50 ([14]; read-out: LC50): 12700 nM; Kidney [15]: 9.85E−08; Heart [16]: 2.96E−09; Liver [17]: 1.39E−10; Skeletal [18]: 1.29E−08; GI50 [19]: 3.06 nM; TGI [19]: 8.93E−09 Molar; CC50 ([19]; read-out: LC50): 12700 nM
